Where a SMILES comes first, the peptide text is derived from it. Side-chain parts run from the residue outwards. [ ]: non-standard residue; d: D form. The star is where a group is joined. d2Nal(N,N-C(O)(CH2)4) = O=C1CCCCN1[C@H](Cc1ccc2ccccc2c1)C(=O)*; d2Nal(N,N-(CH2)3CO) = O=C1CCCN1[C@H](Cc1ccc2ccccc2c1)C(=O)*; Shikimoyl = O=C(C1=C[C@@H](O)[C@@H](O)[C@H](O)C1)*; Acetyl(2-oxopyrrolidin-1-yl) = O=C1CCCN1CC(=O)*; dPhe(4-Cl) = N[C@H](Cc1ccc(Cl)cc1)C(=O)O; d1Nal = N[C@H](Cc1cccc2ccccc12)C(=O)O; d(hCit) = NC(=O)NCCCC[C@@H](N)C(=O)O; Lys(iPr) = CC(C)NCCCC[C@H](N)C(=O)O; NMeY = CN[C@@H](Cc1ccc(O)cc1)C(=O)O; dCit = NC(=O)NCCC[C@@H](N)C(=O)O; hArg = N=C(N)NCCCC[C@H](N)C(=O)O; d3Pal = N[C@H](Cc1cccnc1)C(=O)O; Nicotinoyl = O=C(c1cccnc1)*
Target: T1, LHRH (Rattus norvegicus, UniProt P30969)
T1 construct: endogenous in cells
T1 sequence (P30969 1-327): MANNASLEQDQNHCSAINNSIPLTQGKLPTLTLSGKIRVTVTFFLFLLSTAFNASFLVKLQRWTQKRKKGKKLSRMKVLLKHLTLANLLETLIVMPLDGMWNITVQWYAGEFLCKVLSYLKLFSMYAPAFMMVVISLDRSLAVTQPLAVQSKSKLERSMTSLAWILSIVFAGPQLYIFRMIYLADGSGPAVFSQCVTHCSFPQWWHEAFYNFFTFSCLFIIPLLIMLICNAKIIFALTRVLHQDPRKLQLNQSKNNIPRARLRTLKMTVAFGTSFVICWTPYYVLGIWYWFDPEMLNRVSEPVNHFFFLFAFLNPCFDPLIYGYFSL
Assay: in vitro test for LHRH antagonist potency (pA2)
Format: cell-based
Conditions: negative logarithm of the antagonist concentration required to shift the response curve produced by the agonist leuprolide to two-fold higher concentration
Experimental: Representative compounds of the present invention were evaluated in an in vitro test for LHRH antagonist potency (pA2). The test employed the method detailed in F. Haviv, et al. J. Med. Chem., 32:2340-2344 (1989). The values of pA2 are the negative logarithms of the concentration of the particular antagonist test compound required to shift the response curve produced by the agonist leuprolide to two-fold higher concentration. (Leuprolide is disclosed and claimed in U.S. Pat. No. 4,005,063.) Typically pA2 values of 9.5 or greater are indicative of good LHRH antagonist potency, with values of 10.0 or greater being preferred.

For `CC(C)C[C@H](NC(=O)[C@@H](CCCNC(N)=O)NC(=O)[C@H](Cc1ccc(O)cc1)N(C)C(=O)[C@H](CO)NC(=O)[C@@H](Cc1cccc2ccccc12)NC(=O)[C@@H](Cc1ccc(Cl)cc1)NC(=O)CN1CCCC1=O)C(=O)N[C@@H](CCCNC(=N)N)C(=O)N1CCC[C@H]1C(=O)N[C@H](C)C(N)=O` [Example 14, 5LactGly^1 -D4ClPhe^2 -D1Nal^3 -Ser^4 -NMeTyr^5 -DCit^6 -Leu^7 -Arg^8 -Pro^9 -DAla^10 NH2] ({Acetyl(2-oxopyrrolidin-1-yl)}-[dPhe(4-Cl)][d1Nal]S[NMeY][dCit]LRP[dA]-NH2), which Kb is on record?
The Kb was 0.0178 nM.

For `CC(C)C[C@H](NC(=O)[C@@H](CCCCNC(=O)c1cccnc1)NC(=O)[C@H](Cc1ccc(O)cc1)N(C)C(=O)[C@H](CO)NC(=O)[C@@H](Cc1cccnc1)NC(=O)[C@@H](Cc1ccc(Cl)cc1)NC(=O)[C@@H](Cc1ccc2ccccc2c1)N1CCCCC1=O)C(=O)N[C@@H](CCCCNC(C)C)C(=O)N1CCC[C@H]1C(=O)N[C@H](C)C(N)=O` [Example 13, 6LactD2Nal^1 -D4ClPhe^2 -D3Pal^3 -Ser^4 -NMeTyr^5 -DLys(N-epsilon-Nic)^6 -Leu^7 -Lys(N-epsilon-Isopropyl)^8 -Pro^9 -DAla^10 NH2] ({d2Nal(N,N-C(O)(CH2)4)}-[dPhe(4-Cl)][d3Pal]S[NMeY][dK](Nicotinoyl)L[Lys(iPr)]P[dA]-NH2), which Kb is on record?
Its Kb is 0.0178 nM.

With `CC(C)C[C@H](NC(=O)[C@@H](CCCCNC(=O)CNC(=O)C1=C[C@@H](O)[C@@H](O)[C@H](O)C1)NC(=O)[C@H](Cc1ccc(O)cc1)N(C)C(=O)[C@H](CO)NC(=O)[C@@H](Cc1cccnc1)NC(=O)[C@@H](Cc1ccc(Cl)cc1)NC(=O)[C@@H](Cc1ccc2ccccc2c1)N1CCCCC1=O)C(=O)N[C@@H](CCCNC(=N)N)C(=O)N1CCC[C@H]1C(=O)N[C@H](C)C(N)=O` [Example 9, 6LactD2Nal^1 -D4ClPhe^2 -D3Pal^3 -Ser^4 -NMeTyr^5 -DLys(N-epsilon-Gly-Shik)^6 -Leu^7 -Arg^8 -Pro^9 -DAla^10 NH2] ({d2Nal(N,N-C(O)(CH2)4)}-[dPhe(4-Cl)][d3Pal]S[NMeY][dK]([Gly-Shikimoyl])LRP[dA]-NH2) as the molecule, how does the Kb read?
The Kb was 0.0355 nM.

Which Kb does the source give for `CC(C)C[C@H](NC(=O)[C@@H](CCCCNC(=O)CNC(=O)C1=C[C@@H](O)[C@@H](O)[C@H](O)C1)NC(=O)[C@H](Cc1ccc(O)cc1)N(C)C(=O)[C@H](CO)NC(=O)[C@@H](Cc1cccnc1)NC(=O)[C@@H](Cc1ccc(Cl)cc1)NC(=O)[C@@H](Cc1ccc2ccccc2c1)N1CCCC1=O)C(=O)N[C@@H](CCCCNC(=N)N)C(=O)N1CCC[C@H]1C(=O)N[C@H](C)C(N)=O` [Example 5, 5LactD2Nal^1 -D4ClPhe^2 -D3Pal^3 -Ser^4 -NMeTyr^5 -DLys(N-epsilon-Gly-Shik)^6 -Leu^7 -Harg^8 -Pro^9 -DAla^10 NH2] ({d2Nal(N,N-(CH2)3CO)}-[dPhe(4-Cl)][d3Pal]S[NMeY][dK]([Gly-Shikimoyl])L[hArg]P[dA]-NH2) here?
Its Kb is 0.00646 nM.

Which Kb does the source give for `CC(C)C[C@H](NC(=O)[C@@H](CCCCNC(=O)CNC(=O)C1=C[C@@H](O)[C@@H](O)[C@H](O)C1)NC(=O)[C@H](Cc1ccc(O)cc1)N(C)C(=O)[C@H](CO)NC(=O)[C@@H](Cc1cccnc1)NC(=O)[C@@H](Cc1ccc(Cl)cc1)NC(=O)[C@@H](Cc1ccc2ccccc2c1)N1CCCCC1=O)C(=O)N[C@@H](CCCCNC(=N)N)C(=O)N1CCC[C@H]1C(=O)N[C@H](C)C(N)=O` [Example 11, 6LactD2Nal^1 -D4ClPhe^2 -D3Pal^3 -Ser^4 -NMeTyr^5 -DLys(N-epsilon-Gly-Shik)^6 -Leu^7 -Harg^8 -Pro^9 -DAla^10 NH2] ({d2Nal(N,N-C(O)(CH2)4)}-[dPhe(4-Cl)][d3Pal]S[NMeY][dK]([Gly-Shikimoyl])L[hArg]P[dA]-NH2) here?
The Kb was 0.0209 nM.

`CC(C)C[C@H](NC(=O)[C@@H](CCCCNC(=O)C1=C[C@@H](O)[C@@H](O)[C@H](O)C1)NC(=O)[C@H](Cc1ccc(O)cc1)N(C)C(=O)[C@H](CO)NC(=O)[C@@H](Cc1cccnc1)NC(=O)[C@@H](Cc1ccc(Cl)cc1)NC(=O)[C@@H](Cc1ccc2ccccc2c1)N1CCCC1=O)C(=O)N[C@@H](CCCNC(=N)N)C(=O)N1CCC[C@H]1C(=O)N[C@H](C)C(N)=O` [Example 2, 5LactD2Nal^1 -D4ClPhe^2 -D3Pal^3 -Ser^4 -NMeTyr^5 -DLys(N-epsilon-Shik)^6 -Leu^7 -Arg^8 -Pro^9 -DAla^10 NH2] ({d2Nal(N,N-(CH2)3CO)}-[dPhe(4-Cl)][d3Pal]S[NMeY][dK](Shikimoyl)LRP[dA]-NH2) was tested. Which Kb did it give?
Its Kb is 0.0263 nM.

Which Kb does the source give for `CC(C)C[C@H](NC(=O)[C@@H](CCCCNC(=O)c1cccnc1)NC(=O)[C@H](Cc1ccc(O)cc1)N(C)C(=O)[C@H](CO)NC(=O)[C@@H](Cc1cccnc1)NC(=O)[C@@H](Cc1ccc(Cl)cc1)NC(=O)[C@@H](Cc1ccc2ccccc2c1)N1CCCC1=O)C(=O)N[C@@H](CCCCNC(C)C)C(=O)N1CCC[C@H]1C(=O)N[C@H](C)C(N)=O` [Example 7, 5LactD2Nal^1 -D4ClPhe^2 -D3Pal^3 -Ser^4 -NMeTyr^5 -DLys(N-epsilon-Nic)^6 -Leu^7 -Lys(N-epsilon-Isopropyl)^8 -Pro^9 -DAla^10 NH2] ({d2Nal(N,N-(CH2)3CO)}-[dPhe(4-Cl)][d3Pal]S[NMeY][dK](Nicotinoyl)L[Lys(iPr)]P[dA]-NH2) here?
Its Kb is 0.0372 nM.

With `CC(C)C[C@H](NC(=O)[C@@H](CCCCNC(=O)C1=C[C@@H](O)[C@@H](O)[C@H](O)C1)NC(=O)[C@H](Cc1ccc(O)cc1)N(C)C(=O)[C@H](CO)NC(=O)[C@@H](Cc1cccnc1)NC(=O)[C@@H](Cc1ccc(Cl)cc1)NC(=O)[C@@H](Cc1ccc2ccccc2c1)N1CCCCC1=O)C(=O)N[C@@H](CCCNC(=N)N)C(=O)N1CCC[C@H]1C(=O)N[C@H](C)C(N)=O` [Example 8, 6LactD2Nal^1 -D4ClPhe^2 -D3Pal^3 -Ser^4 -NMeTyr^5 -DLys(N-epsilon-Shik)^6 -Leu^7 -Arg^8 -Pro^9 -DAla^10 NH2] ({d2Nal(N,N-C(O)(CH2)4)}-[dPhe(4-Cl)][d3Pal]S[NMeY][dK](Shikimoyl)LRP[dA]-NH2) as the molecule, how does the Kb read?
The Kb was 0.0129 nM.

With `CC(C)C[C@H](NC(=O)[C@@H](CCCCNC(=O)C1=C[C@@H](O)[C@@H](O)[C@H](O)C1)NC(=O)[C@H](Cc1ccc(O)cc1)N(C)C(=O)[C@H](CO)NC(=O)[C@@H](Cc1cccnc1)NC(=O)[C@@H](Cc1ccc(Cl)cc1)NC(=O)[C@@H](Cc1ccc2ccccc2c1)N1CCCC1=O)C(=O)N[C@@H](CCCCNC(=N)N)C(=O)N1CCC[C@H]1C(=O)N[C@H](C)C(N)=O` [Example 4, 5LactD2Nal^1 -D4ClPhe^2 -D3Pal^3 -Ser^4 -NMeTyr^5 -DLys(N-epsilon-Shik)^6 -Leu^7 -Harg^8 -Pro^9 -DAla^10 NH2] ({d2Nal(N,N-(CH2)3CO)}-[dPhe(4-Cl)][d3Pal]S[NMeY][dK](Shikimoyl)L[hArg]P[dA]-NH2) as the molecule, how does the Kb read?
Its Kb is 0.00692 nM.

`CC(C)C[C@H](NC(=O)[C@@H](CCCNC(N)=O)NC(=O)[C@H](Cc1ccc(O)cc1)N(C)C(=O)[C@H](CO)NC(=O)[C@@H](Cc1cccnc1)NC(=O)[C@@H](Cc1ccc(Cl)cc1)NC(=O)[C@@H](Cc1ccc2ccccc2c1)N1CCCC1=O)C(=O)N[C@@H](CCCNC(=N)N)C(=O)N1CCC[C@H]1C(=O)N[C@H](C)C(N)=O` [Example 1, 5LactD2Nal^1 -D4ClPhe^2 -D3Pal^3 -Ser^4 -NMeTyr^5 -DCit^6 -Leu^7 -Arg^8 -Pro^9 -DAla^10 NH2] ({d2Nal(N,N-(CH2)3CO)}-[dPhe(4-Cl)][d3Pal]S[NMeY][dCit]LRP[dA]-NH2) was tested. Which Kb did it give?
Its Kb is 0.00813 nM.

`CC(C)C[C@H](NC(=O)[C@@H](CCCCNC(=O)CNC(=O)C1=C[C@@H](O)[C@@H](O)[C@H](O)C1)NC(=O)[C@H](Cc1ccc(O)cc1)N(C)C(=O)[C@H](CO)NC(=O)[C@@H](Cc1cccnc1)NC(=O)[C@@H](Cc1ccc(Cl)cc1)NC(=O)[C@@H](Cc1ccc2ccccc2c1)N1CCCC1=O)C(=O)N[C@@H](CCCNC(=N)N)C(=O)N1CCC[C@H]1C(=O)N[C@H](C)C(N)=O` [Example 3, 5LactD2Nal^1 -D4ClPhe^2 -D3Pal^3 -Ser^4 -NMeTyr^5 -DLys(N-epsilon-Gly-Shik)^6 -Leu^7 -Arg^8 -Pro^9 -DAla^10 NH2] ({d2Nal(N,N-(CH2)3CO)}-[dPhe(4-Cl)][d3Pal]S[NMeY][dK]([Gly-Shikimoyl])LRP[dA]-NH2) was tested. Which Kb did it give?
The Kb was 0.0209 nM.

For `CC(C)C[C@H](NC(=O)[C@@H](CCCCNC(N)=O)NC(=O)[C@H](Cc1ccc(O)cc1)NC(=O)[C@H](CO)NC(=O)[C@@H](Cc1cccnc1)NC(=O)[C@@H](Cc1ccc(Cl)cc1)NC(=O)[C@@H](Cc1ccc2ccccc2c1)N1CCCC1=O)C(=O)N[C@@H](CCCCNC(C)C)C(=O)N1CCC[C@H]1C(=O)N[C@H](C)C(N)=O` [Example 12, 5LactD2Nal^1 -D4ClPhe^2 -D3Pal^3 -Ser^4 -Tyr^5 -DHcit^6 -Leu^7 -Lys(isp)^8 -Pro^9 -DAla^10NH2] ({d2Nal(N,N-(CH2)3CO)}-[dPhe(4-Cl)][d3Pal]SY[d(hCit)]L[Lys(iPr)]P[dA]-NH2), which Kb is on record?
The Kb was 0.0178 nM.

With `CC(C)C[C@H](NC(=O)[C@@H](CCCCNC(=O)C1=C[C@@H](O)[C@@H](O)[C@H](O)C1)NC(=O)[C@H](Cc1ccc(O)cc1)N(C)C(=O)[C@H](CO)NC(=O)[C@@H](Cc1cccnc1)NC(=O)[C@@H](Cc1ccc(Cl)cc1)NC(=O)[C@@H](Cc1ccc2ccccc2c1)N1CCCCC1=O)C(=O)N[C@@H](CCCCNC(=N)N)C(=O)N1CCC[C@H]1C(=O)N[C@H](C)C(N)=O` [Example 10, 6LactD2Nal^1 -D4ClPhe^2 -D3Pal^3 -Ser^4 -NMeTyr^5 -DLys(N-epsilon-Shik)^6 -Leu^7 -Harg^8 -Pro^9 -DAla^10 NH2] ({d2Nal(N,N-C(O)(CH2)4)}-[dPhe(4-Cl)][d3Pal]S[NMeY][dK](Shikimoyl)L[hArg]P[dA]-NH2) as the molecule, how does the Kb read?
The Kb was 0.0209 nM.

Source: patent publication US5516759A, “LHRH antagonists having lactam groups at the N-terminus” (TAP Holdings Inc., priority 1994, dated 1996)
